Laboratory results: patent publication US20120178738A1, “DIBENZO [B,F] [1,4]OXAZAPINE COMPOUNDS” (ARYX THERAPEUTICS, INC., priority 2007, published 2012)

Columns and labels:
[1] = test system: apomorphine-induced disruption of swimming in mice; assay: Antagonism of apomorphine-induced disruption of swimming in mice; type: in vivo
Text: The antagonism of apomorphine-induced disruption of swimming in mice (Warawa, E. J. et al. (2001). Behavioral approach to nondyskinetic dopamine antagonists: identification of seroquel. J. Med. Chem., 44, 372-389) was used to assess test compounds. Apomorphine-treated mice fail to swim and remain in place, pawing the walls of the swimming chamber, or making abortive swims. Certain atypical antipsychotic compounds “normalize” the swimming behavior of such mice.
The animals (Swiss Webster, female, about 20 g; Charles River) were administered compounds of the invention (0.1 μg/kg-30 mg/kg ip) […] before they were dosed with apomorphine HCl at 1.25 mg/kg sc. Twenty seven minutes after test compound injection, and fifteen minutes after apomorphine injection, each mouse was placed into a circular swimming tank for 2 minutes and the number of “swims” were counted. The height of the tank is 15 cm and the diameter is 28 cm. A circular obstacle, 10.5 cm in diameter and 17 cm high was placed in the center of the tank creating a circular swimming channel 8.75 cm wide. The water level is 5.5 cm and the water was kept at room temperature (about 20° C.). Marks are placed on the floor and side of the tank 180 degrees apart. A “swim” was scored each time a mouse swims from one mark to the other and the median number of swims for all the mice was used as the score for that treatment.

[2] = biological target: T1, human D2S receptor (Homo sapiens, UniProt P14416); assay: Adenylyl cyclase (HitHunter cAMP XS) assay in HEK 293 cells expressing human D2S; type: cell-based
T1 construct: host or cells: HEK 293 cells

[3] = test system: catalepsy in mice; assay: Catalepsy mouse model; type: in vivo; conditions: up to 30 mg/kg, IP
Method: A catalepsy mouse model was used to investigate a potential side effect of antipsychotic agents.
The catalepsy methodology used herein has been adapted from Tada, M. et al. ((2004). Psychopharmacol., 176, 94-100) as well as Wang et al. ((2000). J. Neurosci., 20, 8305-8314).
The animals (Swiss Webster, female, about 20 g; Charles River) were administered compounds of the invention (1 μg/kg-30 mg/kg ip). Twenty seven minutes after test compound injection, the mice's forepaws were placed on a horizontal steel bar (diameter 0.2 cm), elevated 3-5 cm above the tabletop and the time taken for the animals to remove both paws was recorded for up to 2 min.

T1 sequence (P14416 1-414 isoform P14416-2): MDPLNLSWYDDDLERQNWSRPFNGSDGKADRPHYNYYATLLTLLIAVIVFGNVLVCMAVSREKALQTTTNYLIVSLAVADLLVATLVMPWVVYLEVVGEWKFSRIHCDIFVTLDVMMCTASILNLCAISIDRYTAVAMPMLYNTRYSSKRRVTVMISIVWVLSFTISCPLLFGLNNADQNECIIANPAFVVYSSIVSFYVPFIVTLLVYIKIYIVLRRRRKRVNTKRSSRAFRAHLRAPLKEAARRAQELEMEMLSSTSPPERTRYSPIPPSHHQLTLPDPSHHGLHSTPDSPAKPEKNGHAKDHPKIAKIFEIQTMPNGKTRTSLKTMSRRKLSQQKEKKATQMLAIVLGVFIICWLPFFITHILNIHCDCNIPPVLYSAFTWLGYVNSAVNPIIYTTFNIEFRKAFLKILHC

| SMILES | antagonizing the apomorphine-induced disruption of swimming, potency vs clozapine ([1]; ip, apomorphine HCl 1.25 mg/kg sc) | functional activity at human D2S receptor ([2]; HEK 293 cells, 27 μM forskolin (agonist) or plus 30 nM dopamine (antagonist)) | IC50 ([2]; adenylyl cyclase assay, human D2S receptor, read-out: estimated IC50) [µM] | catalepsy [3] | reversal of apomorphine-induced disruption of swimming ([1]; 3 and 10 mg/kg) |
| --- | --- | --- | --- | --- | --- |
| CCOC(=O)C[C@H]1CN(C2=Nc3cc(Cl)ccc3Oc3ccccc32)CCN1 [Compound K, (S,E)-ethyl 2-(4-(8-chlorodibenzo[b,f][1,4]oxazepin-11-yl)piperazin-2-yl)acetate] | more potent than clozapine | partial D2 receptor agonist and a D2 receptor antagonist | 13 | did not cause catalepsy |  |
| O=C(O)C[C@H]1CN(C2=Nc3cc(Cl)ccc3Oc3ccccc32)CCN1 [Compound Q, (S,E)-2-(4-(8-chlorodibenzo[b,f][1,4]oxazepin-11-yl)piperazin-2-yl)acetic acid] |  |  |  |  | reversed |
